The source of these data is publication PMC9469097 (Frontiers in Pharmacology, 2022).

Like-named read-outs stand apart in the source and are kept apart here.

Data set [1] is described as follows: Stability tests for target pentacyclic triterpenoid acids.
Data set [2] in a line: Tissue distribution of PTAs of Styrax in rats. The following applies: for exposure in rat plasma and rat liver: after single oral dose of Styrax (100 mg/kg).
Protocol: Nine Male Sprague-Dawley rats (250–300 g) were purchased from Shanghai Sippe-Bk Lab Animal Co., Ltd. (Shanghai, China) and were fed in Experimental Animal Center of SHUTCM. […] The rats were fasted overnight before dosing but were free to drink water. Nine rats were randomly divided into three groups (1, 2, and 4 h). […] Blood samples were collected from the abdominal aorta, and the tissues (including the liver, duodenum, jejunum, ileum and colon) were removed rapidly and placed on ice. After then, the blood samples were centrifuged at 8,000 rpm, 4 °C for 10 min, and the supernatant was stored at −80 °C until analysis.
Firstly, each tissue (such as liver, duodenum, jejunum, ileum, colon) was accurately weighed after sucking the water on tissue surface. Each tissue was put into an EP tube and then cut (3-5 times) by a scissor. After then, PBS (pH 7.4) and magnetic beads were added into EP tube, grind the tissue by a tissue grinder. The tissue grinding fluid was centrifuged at 9,000 g, 4 °C for 20 min. 50 μl tissue supernatant was diluted by adding 250 μl LC grade acetonitrile. The protein was precipitated by centrifuging at 20,000 ×g, 4 °C for 30 min and the supernatant was collected to determine the protein concentration by a BCA Protein Quantification Kit. After then, the concentrations of seven PTAs were determined by using UHPLC-Q-Orbitrap HRMS analysis.
Data set [3] has as its target CYP3A4 (Homo sapiens, UniProt P08684). Kind of data set: CYP3A4-catalyzed NEN 4-hydroxylation in HLMs (fluorescence-based assay).
Protocol: In brief, PBS (pH 7.4, 100 mM), herbal medicines (100 μg/ml, final concentration)/PTAs/solvent, NEN, G-6-P, G-6-PDH, MgCl2, and HLMs were added to the 96-well plate in turn, then the samples were vortexed and pre-incubated for 3 min at 37 °C. The oxidative reactions were initiated by adding β-NADP^+ to yield a final volume of 200 μl, then the formation rates of NEHN (hydroxylated metabolite of NEN) were continuously monitored for 30 min at 37 °C using a 96-well fluorescence microplate reader (SpectraMax® iD3, Molecular Devices, Austria). The percentage of organic solvent in all incubation is not over 1%.
For data set [4], the target named is CYP3A (Homo sapiens, UniProt P08684). The data set can be described thus: CYP3A-catalyzed midazolam 1′-hydroxylation in HLMs. The data set is classed as biochemical. As to conditions: for IC50 at 30 min: human. How it is done: Following incubation for 30 min at 37 °C, and 200 μl ice-cold acetonitrile containing internal standard (IS, 90 ng/ml) was subsequently added to quench the oxidative reaction. The mixture was then centrifuged at 20,000 ×g, 4 °C for 20 min, and the supernatant was quantified by LC-MS/MS analysis as described in Supplementary Table S2.
Chain of CYP3A (P08684 2-503): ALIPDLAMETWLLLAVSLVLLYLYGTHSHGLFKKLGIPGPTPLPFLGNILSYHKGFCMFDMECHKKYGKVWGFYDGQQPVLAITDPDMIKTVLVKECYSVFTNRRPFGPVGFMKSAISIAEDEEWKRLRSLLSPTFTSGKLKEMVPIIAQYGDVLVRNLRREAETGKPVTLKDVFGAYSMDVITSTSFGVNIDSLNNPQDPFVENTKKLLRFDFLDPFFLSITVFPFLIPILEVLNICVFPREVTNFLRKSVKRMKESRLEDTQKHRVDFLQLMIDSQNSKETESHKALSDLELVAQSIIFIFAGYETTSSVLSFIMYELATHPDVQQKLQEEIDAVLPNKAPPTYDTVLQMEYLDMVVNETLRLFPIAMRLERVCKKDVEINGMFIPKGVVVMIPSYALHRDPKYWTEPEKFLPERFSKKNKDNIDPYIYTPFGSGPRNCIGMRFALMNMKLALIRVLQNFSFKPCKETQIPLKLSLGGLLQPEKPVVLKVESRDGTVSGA

The nature of data set [5]: Pharmacokinetic interaction between Styrax and midazolam (i.v. and i.g.) in rats. The following applies: for AUC(0-inf) / Cmax / half-life: male, Sprague-Dawley, rat, plasma; for half-life: t1/2, rats.
[6] abbreviates: iv, 5 mg/kg, rats, midazolam i.v. 5 mg/kg, pretreated with Soybean oil.
The mark [7] stands for this setting: iv, 5 mg/kg, rats, midazolam i.v. 5 mg/kg, pretreated with Styrax i.g. 100 mg/kg.
[8] abbreviates: po, 20 mg/kg, rats, midazolam i.g. 20 mg/kg, pretreated with Soybean oil.
Where [9] appears, read: po, 20 mg/kg, rats, midazolam i.g. 20 mg/kg, pretreated with Styrax i.g. 100 mg/kg.
Setting [10] is: rats, midazolam i.g. 20 mg/kg, Styrax + midazolam vs Soybean oil + midazolam (fold).
[11] abbreviates: rats, midazolam i.v. 5 mg/kg, Styrax + midazolam vs Soybean oil + midazolam.

Chain of CYP3A4 (P08684 whole entry): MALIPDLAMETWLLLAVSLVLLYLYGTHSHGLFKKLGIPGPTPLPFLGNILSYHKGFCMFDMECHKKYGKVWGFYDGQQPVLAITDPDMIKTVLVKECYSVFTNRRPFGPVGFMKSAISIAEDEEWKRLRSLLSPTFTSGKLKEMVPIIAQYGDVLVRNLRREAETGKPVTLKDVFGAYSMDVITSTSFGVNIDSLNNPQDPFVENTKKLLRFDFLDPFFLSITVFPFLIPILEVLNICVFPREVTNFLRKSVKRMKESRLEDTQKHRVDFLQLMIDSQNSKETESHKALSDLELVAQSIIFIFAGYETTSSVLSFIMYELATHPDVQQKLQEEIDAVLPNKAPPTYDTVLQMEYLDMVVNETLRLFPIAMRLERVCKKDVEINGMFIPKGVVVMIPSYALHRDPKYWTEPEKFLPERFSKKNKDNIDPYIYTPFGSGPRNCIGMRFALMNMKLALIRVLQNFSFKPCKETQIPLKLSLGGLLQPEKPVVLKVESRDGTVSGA

As to `C=C(C)[C@@H]1CC[C@]2(C(=O)O)CC[C@]3(C)[C@H](CC[C@@H]4[C@@]5(C)CC[C@H](O)C(C)(C)[C@@H]5CC[C@]43C)[C@@H]12` [betulinic acid], in data set [1] (nominal level 3.28 nmol/L), the “Stability, 4 ℃ Refrigerator (3 day, %)” value came to 100.20%; the “Stability, -20℃ freeze-thaw (3 times, %)” value was 104.81%; the “Stability, Room temperature (24 h, %)” value was 98.14%. Moreover, in data set [1] (nominal level 20.48 nmol/L), the “Stability, 4 ℃ Refrigerator (3 day, %)” value is 102.78%; the “Stability, -20℃ freeze-thaw (3 times, %)” value was 99.04%; the “Stability, Room temperature (24 h, %)” value came out at 102.89%. In data set [1] (nominal level 128.00 nmol/L), the “Stability, 4 ℃ Refrigerator (3 day, %)” value is listed as 102.12%; the “Stability, -20℃ freeze-thaw (3 times, %)” value is 110.33%; the “Stability, Room temperature (24 h, %)” value turned out to be 103.89%. The “exposure in rat plasma and rat liver” value in data set [2] is “could not be detected”. For the same compound, the IC50 (as a rule, the point on the concentration scale where inhibition reaches its midpoint) in data set [3] was determined as 4.11 ± 0.8 µM. Besides, the IC50 at 30 min in data set [4] (microsomes, pH 7.4) was found to be 7.74 ± 0.95 µM.
Take `C=C(C)[C@@H]1CC[C@]2(C(=O)O)CC[C@]3(C)[C@H](CC[C@@H]4[C@@]5(C)CCC(=O)C(C)(C)[C@@H]5CC[C@]43C)[C@@H]12` [betulonic acid]: the half-maximal inhibitory concentration (IC50) in data set [3] (NEN 4-hydroxylation, HLMs) amounted to 0.96 ± 0.14 µM; in data set [4] (midazolam 1′-hydroxylation, HLMs), 2.51 ± 0.34 µM.
As to `C[C@H]1[C@H](C)CC[C@]2(C(=O)O)CC[C@]3(C)C(=CC[C@@H]4[C@@]5(C)C[C@@H](O)[C@H](O)C(C)(C)[C@@H]5CC[C@]43C)[C@H]12` [corosolic acid], in data set [1] (nominal level 8.19 nmol/L), the “Stability, 4 ℃ Refrigerator (3 day, %)” value stood at 105.13%; the “Stability, -20℃ freeze-thaw (3 times, %)” value is 104.46%; the “Stability, Room temperature (24 h, %)” value came to 99.78%. In data set [1] (nominal level 51.20 nmol/L), the “Stability, 4 ℃ Refrigerator (3 day, %)” value was determined as 104.14%; the “Stability, -20℃ freeze-thaw (3 times, %)” value worked out at 100.45%; the “Stability, Room temperature (24 h, %)” value is 99.91%. Moreover, in data set [1] (nominal level 320.00 nmol/L), the “Stability, 4 ℃ Refrigerator (3 day, %)” value came to 97.82%; the “Stability, -20℃ freeze-thaw (3 times, %)” value is on record as 98.31%; the “Stability, Room temperature (24 h, %)” value amounted to 96.69%. This compound gave a half-maximal inhibitory concentration (IC50) in data set [3] of 41.9 ± 11.7 µM. Moreover, the IC50 at 30 min in data set [4] (human liver microsomes, pH 7.4, probe midazolam (1′-hydroxylation), midazolam 1′-hydroxylation, HLMs, read-out: IC50) was 32.2 ± 5.63 µM.
`C=C(C)[C@@H]1CC[C@]2(C(=O)O)CC[C@]3(C)[C@H](CC[C@@H]4[C@@]5(C)CC[C@@H](O)C(C)(C)[C@@H]5CC[C@]43C)[C@@H]12` [epibetulinic acid]: in data set [1] (nominal level 3.28 nmol/L), the “Stability, 4 ℃ Refrigerator (3 day, %)” value was 113.34%; the “Stability, -20℃ freeze-thaw (3 times, %)” value was found to be 109.83%; the “Stability, Room temperature (24 h, %)” value was determined as 104.88%. Besides, in data set [1] (nominal level 20.48 nmol/L), the “Stability, 4 ℃ Refrigerator (3 day, %)” value was 105.44%; the “Stability, -20℃ freeze-thaw (3 times, %)” value was determined as 106.94%; the “Stability, Room temperature (24 h, %)” value is recorded as 96.59%. Moreover, in data set [1] (nominal level 128.00 nmol/L), the “Stability, 4 ℃ Refrigerator (3 day, %)” value is recorded as 107.19%; the “Stability, -20℃ freeze-thaw (3 times, %)” value stood at 110.52%; the “Stability, Room temperature (24 h, %)” value is 106.30%. Moreover, the “exposure in rat plasma and rat liver” value in data set [2] is on record as “very low exposure levels”. Also, in data set [3], the IC50 was 0.47 ± 0.08 µM. The compound further displayed an IC50 at 30 min in data set [4] (microsomes, pH 7.4) of 0.64 ± 0.1 µM.
Consider `CC1(C)CC[C@]2(C(=O)O)CC[C@]3(C)C(=CC[C@@H]4[C@@]5(C)C[C@@H](O)[C@H](O)C(C)(C)[C@@H]5CC[C@]43C)[C@@H]2C1` [maslinic acid], for which, in data set [1] (nominal level 8.19 nmol/L), the “Stability, 4 ℃ Refrigerator (3 day, %)” value was found to be 101.20%; the “Stability, -20℃ freeze-thaw (3 times, %)” value was 100.54%; the “Stability, Room temperature (24 h, %)” value was found to be 95.84%. Also, in data set [1] (nominal level 51.20 nmol/L), the “Stability, 4 ℃ Refrigerator (3 day, %)” value is 103.76%; the “Stability, -20℃ freeze-thaw (3 times, %)” value is listed as 100.05%; the “Stability, Room temperature (24 h, %)” value turned out to be 99.51%. In data set [1] (nominal level 320.00 nmol/L), the “Stability, 4 ℃ Refrigerator (3 day, %)” value is recorded as 97.98%; the “Stability, -20℃ freeze-thaw (3 times, %)” value is 98.47%; the “Stability, Room temperature (24 h, %)” value came out at 96.85%. Besides, the “exposure in rat plasma and rat liver” value in data set [2] was “could not be detected”. Moreover, in data set [3], the half-inhibitory concentration (IC50) was determined as 3.44 ± 0.77 µM. Moreover, half-maximal inhibition in data set [4] (microsomes, pH 7.4) (IC50 at 30 min) required 19.4 ± 3.04 µM.
For the compound `Cc1ncc2n1-c1ccc(Cl)cc1C(c1ccccc1F)=NC2` [midazolam], the AUC(0-inf) (in general, total exposure, with the tail of the curve extrapolated) in data set [5] (setting [6]) worked out at 1320 ± 130 ng·h/mL; in data set [5] (setting [7]) it was 1200 ± 114 ng·h/mL; in data set [5] (setting [8]) it was 211 ± 87.2 ng·h/mL; in data set [5] (setting [9]), 431 ± 217 ng·h/mL. In addition, the Cmax (in general, the peak of the concentration-time curve) in data set [5] (setting [6]) worked out at 3260 ± 708 ng/mL; in data set [5] (setting [7]), 3370 ± 570 ng/mL; in data set [5] (setting [8]), 129 ± 111 ng/mL; in data set [5] (setting [9]), 294 ± 277 ng/mL. For the same compound, the half-life (in general, the time needed for the level to fall by half in the phase considered) in data set [5] (iv, 5 mg/kg, midazolam i.v. 5 mg/kg, pretreated with Styrax i.g. 100 mg/kg) is 0.52 ± 0.14 h; in data set [5] (po, 20 mg/kg, midazolam i.g. 20 mg/kg, pretreated with Soybean oil), 2.14 ± 0.28 h; in data set [5] (po, 20 mg/kg, midazolam i.g. 20 mg/kg, pretreated with Styrax i.g. 100 mg/kg), 4.52 ± 3.96 h. Also, the “Tmax Ratio” value in data set [5] (rats, midazolam i.g. 20 mg/kg, Styrax + midazolam vs Soybean oil + midazolam) was 1.00; in data set [5] (setting [11]), 1.00. Moreover, the “AUC(0-inf) Ratio” value in data set [5] (setting [10]) was determined as 2.04; in data set [5] (setting [11]), 0.91. Besides, the “Cmax Ratio” value in data set [5] (setting [10]) is 2.28; in data set [5] (setting [11]), 1.03. In addition, the entries for the “t1/2 Ratio” value in data set [5] (setting [10]) and in data set [5] (setting [11]) were 2.11 and 0.59, respectively. Besides, in data set [5] (rats, midazolam i.v. 5 mg/kg, pretreated with Soybean oil), the t1/2 is 0.88 ± 0.28 h.
For the compound `CC1(C)CC[C@]2(C(=O)O)CC[C@]3(C)C(=CC[C@@H]4[C@@]5(C)CC[C@H](O)C(C)(C)[C@@H]5CC[C@]43C)[C@@H]2C1` [oleanolic acid], the “Stability, 4 ℃ Refrigerator (3 day, %)” value in data set [1] (nominal level 3.28 nmol/L) is 105.69%; in data set [1] (nominal level 20.48 nmol/L), 102.19%; in data set [1] (nominal level 128.00 nmol/L), 104.96%. The “Stability, -20℃ freeze-thaw (3 times, %)” value in data set [1] (nominal level 3.28 nmol/L) came out at 103.79%; in data set [1] (nominal level 20.48 nmol/L), 105.51%; in data set [1] (nominal level 128.00 nmol/L) it was 105.16%. Besides, the figures for the “Stability, Room temperature (24 h, %)” value in data set [1] (nominal level 3.28 nmol/L), in data set [1] (nominal level 20.48 nmol/L) and in data set [1] (nominal level 128.00 nmol/L) were 103.28%, 99.64% and 99.00%, respectively. Moreover, the “exposure in rat plasma and rat liver” value in data set [2] was “very low exposure levels”. The compound also gave a 50% inhibitory concentration (IC50) at 30 min in data set [4] (microsomes, pH 7.4) of 14.8 ± 2.34 µM.
With `CC1(C)CC[C@]2(C(=O)O)CC[C@]3(C)C(=CC[C@@H]4[C@@]5(C)CCC(=O)C(C)(C)[C@@H]5CC[C@]43C)[C@@H]2C1` [oleanonic acid], in data set [1] (nominal level 3.28 nmol/L), the “Stability, 4 ℃ Refrigerator (3 day, %)” value amounted to 85.84%; the “Stability, -20℃ freeze-thaw (3 times, %)” value came to 91.69%; the “Stability, Room temperature (24 h, %)” value amounted to 86.92%. Also, in data set [1] (nominal level 20.48 nmol/L), the “Stability, 4 ℃ Refrigerator (3 day, %)” value is listed as 103.95%; the “Stability, -20℃ freeze-thaw (3 times, %)” value is given as 109.44%; the “Stability, Room temperature (24 h, %)” value was determined as 101.86%. For the same compound, in data set [1] (nominal level 128.00 nmol/L), the “Stability, 4 ℃ Refrigerator (3 day, %)” value came out at 100.64%; the “Stability, -20℃ freeze-thaw (3 times, %)” value was 113.69%; the “Stability, Room temperature (24 h, %)” value turned out to be 98.85%. The “local exposure to rat jejunum” value in data set [2] (1 h after single oral dose of Styrax (100 mg/kg)) is listed as 745.69 nM/mg tissue protein. In data set [2], the “exposure in rat plasma and rat liver” value was “very low exposure levels”. The compound also came in with an IC50 in data set [3] of 0.8 ± 0.06 µM. This compound yielded a concentration for half-maximal inhibition (IC50) at 30 min in data set [4] (microsomes, pH 7.4) of 0.99 ± 0.09 µM.
